Measured values as given in patent US8865934B2 (priority 2010, dated 2014).
Converted amounts (≈) assume the structure as drawn.

Key:
[1] = DPPH free radical scavenging (antioxidant activity, electron donating ability); conditions: 0.1 mM DPPH in methanol, 30 minutes at room temperature in the absence of light, absorbance at 517 nm
Description: Butylated hydroxyl anisole (BHA) was used as a control.
The mixture was allowed to react at room temperature for 30 minutes in the absence of light, and then the absorbance at 517 nm was measured using an UV-visible spectrophotometer (SCINCO, Korea). As blank, a reaction product between 0.5 ml of 0.1 mM DPPH and 1.5 ml of methanol was used. Electron donating ability (DEA) was calculated using the following equation: Electron donating ability (DEA) %={1−(S/B)}×100 wherein S is the absorbance at 517 nm of the reaction product between DPPH and the sample, and B is the absorbance at 517 nm of the reaction product between DPPH and methanol.

[2] = Stability of ramalin in water by HPLC, alone or with vitamin C; type: physicochemical; conditions: for stability (preserved amount by HPLC area) over maintenance time: FIG. 5
Description: At varying points of time, 10 μl of a sample was analyzed by semi-preparative reverse phase HPLC using an Agilent Eclipse XDB-C18 column (4.6×150 mm). The solvent system used consisted of 0.1% formic acid-containing water (A line) and 0.1% formic acid-containing methanol (B line). The analysis was carried out for a total of 30 minutes under the following conditions: from 0% to 5% for 15 min, from 5% to 90% for 5 min, from 90% to 0% for 5 min, and finally, from 0% to 5 min. The flow rate was 0.7 ml/min.

## COc1ccc(O)c(C(C)(C)C)c1 [Butylated hydroxyl anisole (BHA), Butylated hydroxyl anisole]
[1]
  IC50 values: 1.43 µg/mL (≈ 7.93 µM)

## NC(CCC(=O)NNc1ccccc1O)C(=O)O (stereo not drawn) [Synthesized ramalin, ramalin]
[2]; ramalin alone, stored in water at 25° C. and 38° C.
  stability (preserved amount by HPLC area) over maintenance time: decomposed rapidly
[2]; ramalin mixed with vitamin C (L-ascorbic acid) 1:1 (each 1000 ppm), stored in water
  stability (preserved amount by HPLC area) over maintenance time: stability of the ramalin was maintained
[2]; ramalin stored alone in water
  stability at 38° C.: completely disappear
[2]; ramalin stored together with vitamin C (1:1, each 1000 ppm) in water
  stability at 38° C.: somewhat stable
[2]; room temperature, ramalin alone
  time within which more than half of ramalin disappears: ≤ 4 days
